The text below walks through data of PubChem BioAssay (NCI).

Some test systems named below: MALME-3M melanoma; SN12C renal; UO-31 renal; SNB-19 CNS; HT29 colon; T-47D breast; CCRF-CEM leukemia; UACC-62 melanoma; NCI-H226 lung; MOLT-4 leukemia.
Holding throughout (test): inhibition of tumour cell growth, NCI panel, 48 h

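Protocol summary: plate cells (96-well), add compound at 5 concentrations, incubate 48 h, interpolate endpoints linearly. Definition used: TGI = concentration required for complete inhibition of growth.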

Take `CCn1c2ccccc2c2cc(NC(=O)c3c(C)[nH]c(=O)[nH]c3=S)ccc21`: the TGI in the test with MALME-3M melanoma, in the test with SN12C renal, with UO-31 renal, in the test with SNB-19 CNS, in the test with HT29 colon and in the test with T-47D breast was over 100 µM in each case. For the same compound, the TGI in the test with CCRF-CEM leukemia, with UACC-62 melanoma, with NCI-H226 lung and with MOLT-4 leukemia was over 100 µM each time.

Regarding `CCCS(=O)OC1C(C2COC(C)(C)O2)OC2OC(C)(C)OC21` (stereo not given), the TGI in the test on MALME-3M melanoma was 18 µM; in the test on SN12C renal, 31.8 µM; in the test on UO-31 renal it was 28.3 µM; in the test with SNB-19 CNS, 30.8 µM; in the test with HT29 colon it was 17.9 µM; in the test with T-47D breast, over 69.6 µM. The TGI in the test on CCRF-CEM leukemia was 21.5 µM; in the test with UACC-62 melanoma, 35.2 µM; in the test with NCI-H226 lung, 46.2 µM; with MOLT-4 leukemia, 6.57 µM.

For the compound `CN1C(C(=O)Nc2ccccn2)=C(O)c2ccccc2S1(=O)=O`, the TGI with MALME-3M melanoma, in the test on SN12C renal, with UO-31 renal, in the test on SNB-19 CNS, with HT29 colon and in the test with T-47D breast was over 100 µM in each case. For the same compound, the TGI with CCRF-CEM leukemia, with UACC-62 melanoma, with NCI-H226 lung and in the test with MOLT-4 leukemia was over 100 µM each time.

As for `Cc1nc2ccccc2n1CCc1nc2ccccc2[nH]1`, the TGI with MALME-3M melanoma, in the test with SN12C renal, in the test on UO-31 renal, in the test on SNB-19 CNS, with HT29 colon and with T-47D breast was over 100 µM throughout. In addition, the TGI in the test with CCRF-CEM leukemia, with UACC-62 melanoma, in the test with NCI-H226 lung and in the test on MOLT-4 leukemia was over 100 µM each time.

`CCOc1cc(C=Nc2ccc(Oc3ccc(Cl)cc3)c(Cl)c2)ccc1O`: the TGI in the test with MALME-3M melanoma was 52.6 µM; in the test on SN12C renal it was 38.8 µM; in the test on UO-31 renal, 30.3 µM; in the test with SNB-19 CNS, 62.1 µM; with HT29 colon, 46.6 µM; in the test on T-47D breast, over 100 µM. Moreover, the TGI in the test with CCRF-CEM leukemia stood at 50.8 µM; with UACC-62 melanoma, 50.9 µM; in the test with NCI-H226 lung, 90.2 µM; with MOLT-4 leukemia it was 67.3 µM.

Take `NC(=S)NS(=O)(=O)c1ccc(Cl)cc1Cl`: the TGI in the test on MALME-3M melanoma, in the test on SN12C renal, in the test with UO-31 renal, in the test on SNB-19 CNS, with HT29 colon and in the test with T-47D breast was over 100 µM throughout. Also, the TGI in the test with CCRF-CEM leukemia, in the test on UACC-62 melanoma, with NCI-H226 lung and in the test with MOLT-4 leukemia was over 100 µM throughout.

On to `Cc1ccc2c3ccc4c(c3n(C)c2c1)C(=O)C=CC4=O`, for which the TGI is 6.01 µM in the test with MALME-3M melanoma; over 10 µM in the test with SN12C renal; over 10 µM in the test on UO-31 renal; over 10 µM in the test on SNB-19 CNS; over 10 µM in the test with HT29 colon; 5.92 µM in the test on T-47D breast. The TGI in the test with CCRF-CEM leukemia is 0.844 µM; in the test with UACC-62 melanoma, over 10 µM; in the test with NCI-H226 lung, over 10 µM; in the test with MOLT-4 leukemia, 2.61 µM.

As to `O=c1[nH]nc(Cc2ccc([N+](=O)[O-])cc2)[nH]1`, the TGI in the test with MALME-3M melanoma, with SN12C renal, with UO-31 renal, in the test on SNB-19 CNS, in the test on HT29 colon and in the test with T-47D breast was over 100 µM in each case. For the same compound, the TGI with CCRF-CEM leukemia, with UACC-62 melanoma, with NCI-H226 lung and in the test on MOLT-4 leukemia was over 100 µM throughout.

For `CNc1ccc([N+](=O)[O-])cc1C(=O)N1CCC[C@H]1CO`, the TGI in the test with MALME-3M melanoma, in the test with SN12C renal, with UO-31 renal, in the test on SNB-19 CNS, in the test with HT29 colon and with T-47D breast was over 100 µM throughout. The TGI in the test on CCRF-CEM leukemia, with UACC-62 melanoma, with NCI-H226 lung and in the test with MOLT-4 leukemia was over 100 µM each time.

Turning to `Cn1cnc([N+](=O)[O-])c1Sc1nncc2[nH]cnc12`, the TGI with MALME-3M melanoma, in the test on SN12C renal, in the test on UO-31 renal, in the test with SNB-19 CNS, in the test on HT29 colon and with T-47D breast was over 100 µM throughout. Also, the TGI in the test on CCRF-CEM leukemia, in the test on UACC-62 melanoma, with NCI-H226 lung and in the test on MOLT-4 leukemia was over 100 µM each time.

For `COc1cc2c(cc1OCc1ccccc1)NC(=O)[C@@H]1C[C@@H](O)CN1C2=O`, the TGI in the test on MALME-3M melanoma, with SN12C renal, in the test on UO-31 renal, in the test with SNB-19 CNS, with HT29 colon and with T-47D breast was over 100 µM throughout. The TGI in the test on CCRF-CEM leukemia, with UACC-62 melanoma, in the test with NCI-H226 lung and in the test on MOLT-4 leukemia was over 100 µM throughout.

Regarding `Oc1cc(Br)cc2cc(Br)cnc12`, the TGI in the test with MALME-3M melanoma is 58.2 µM; in the test on SN12C renal it was 73 µM; in the test with UO-31 renal it was 29.4 µM; in the test on SNB-19 CNS it was over 100 µM; in the test on HT29 colon, over 100 µM; in the test on T-47D breast, 8.41 µM. Also, the TGI amounted to 6.27 µM in the test on CCRF-CEM leukemia, 5.88 µM in the test with UACC-62 melanoma, 86.5 µM in the test with NCI-H226 lung and 16.1 µM with MOLT-4 leukemia.

For the compound `Cc1cccc(/C=N/NC(=S)NC(C)(C)C)n1`, the TGI in the test with MALME-3M melanoma, in the test with SN12C renal, with UO-31 renal, in the test with SNB-19 CNS, in the test on HT29 colon and with T-47D breast was over 100 µM each time. Further, the TGI with CCRF-CEM leukemia, in the test on UACC-62 melanoma, in the test with NCI-H226 lung and with MOLT-4 leukemia was over 100 µM each time.

For `O/N=C1/CCCCC1NO` (stereo not given), the TGI with MALME-3M melanoma, with SN12C renal, with UO-31 renal, in the test with SNB-19 CNS, in the test on HT29 colon and in the test on T-47D breast was over 100 µM in each case. Moreover, the TGI with CCRF-CEM leukemia, in the test on UACC-62 melanoma, with NCI-H226 lung and in the test on MOLT-4 leukemia was over 100 µM in each case.

Regarding `Cn1c(=O)n2n(c1=O)C1C(=CC2)C2C=CC1n1c(=O)n(C)c(=O)n12` (stereo not given), the TGI with MALME-3M melanoma, with SN12C renal, with UO-31 renal, in the test on SNB-19 CNS, with HT29 colon and in the test on T-47D breast was over 100 µM in each case. Also, the TGI with CCRF-CEM leukemia, in the test with UACC-62 melanoma, in the test with NCI-H226 lung and in the test on MOLT-4 leukemia was over 100 µM throughout.

As for `COc1cc(/C=C/C=C2\CC(C)C/C(=C\C=C\c3ccc(O)c(OC)c3)C2=O)ccc1O` (stereo not given), the TGI with MALME-3M melanoma is 31.1 µM; with SN12C renal it was over 100 µM; in the test with UO-31 renal it was 25.1 µM; with SNB-19 CNS, 96.2 µM; in the test on HT29 colon, 31 µM; with T-47D breast, over 100 µM. The TGI was 15.6 µM in the test on CCRF-CEM leukemia, 26.7 µM with UACC-62 melanoma, 28 µM with NCI-H226 lung and 29.6 µM in the test with MOLT-4 leukemia.

Turning to `OCC1=C[C@@](COCc2ccccc2)(OCc2ccccc2)[C@@H](OCc2ccccc2)[C@@H]1OCc1ccccc1`, the TGI in the test with MALME-3M melanoma was 44.6 µM; with SN12C renal, 10.3 µM; with UO-31 renal it was 67.1 µM; with SNB-19 CNS it was over 100 µM; in the test on HT29 colon, 35.6 µM; with T-47D breast it was 82.8 µM. For the same compound, the TGI in the test with CCRF-CEM leukemia was determined as 11 µM; in the test on UACC-62 melanoma it was 39 µM; in the test with NCI-H226 lung, 35.3 µM; in the test on MOLT-4 leukemia, 8.89 µM.

As for `O=c1c2cc(Cl)ccc2n2nnc3ccc(NCCNCCO)c1c32`, the TGI with MALME-3M melanoma was 5.67 µM; in the test with SN12C renal, 2.88 µM; in the test with UO-31 renal it was 3.49 µM; in the test with SNB-19 CNS it was 5.07 µM; with HT29 colon, 2.74 µM; in the test on T-47D breast, 7.52 µM. The TGI with CCRF-CEM leukemia is 4.44 µM; in the test with UACC-62 melanoma it was 5.41 µM; with NCI-H226 lung, 4.13 µM; in the test on MOLT-4 leukemia, 6.59 µM.

As to `CCOC(=O)C1C2C1C1C(C(=O)OCC)C21` (stereo not given), the TGI with MALME-3M melanoma, in the test with SN12C renal, in the test with UO-31 renal, in the test on SNB-19 CNS, with HT29 colon and with T-47D breast was over 100 µM each time. In addition, the TGI with CCRF-CEM leukemia, in the test on UACC-62 melanoma, in the test with NCI-H226 lung and in the test on MOLT-4 leukemia was over 100 µM in each case.

Turning to `CC1=C(C(=O)OC(C)C)C(c2cccc([N+](=O)[O-])c2)C(C(=O)OC(CO[N+](=O)[O-])CO[N+](=O)[O-])=C(C)N1` (stereo not given), the TGI is over 100 µM in the test with MALME-3M melanoma; over 34 µM in the test on SN12C renal; over 50.1 µM in the test on UO-31 renal; 24.6 µM with SNB-19 CNS; 21 µM in the test with HT29 colon; over 100 µM in the test with T-47D breast. In addition, the TGI with CCRF-CEM leukemia was over 20.1 µM; in the test with UACC-62 melanoma, 9.58 µM; in the test with NCI-H226 lung, 30.6 µM; in the test on MOLT-4 leukemia, 3.76 µM.

As to `OCC(CO)CC1COc2ccccc2O1` (stereo not given), the TGI with MALME-3M melanoma, in the test on SN12C renal, in the test with UO-31 renal, in the test with SNB-19 CNS, in the test on HT29 colon and in the test on T-47D breast was over 10 µM each time. The TGI in the test on CCRF-CEM leukemia, with UACC-62 melanoma, with NCI-H226 lung and in the test with MOLT-4 leukemia was over 10 µM in each case.
